Experimental findings from patent US20080109040A1, “METHOD OF TREATING ARRHYTHMIAS” (priority 2002, published 2008) are described below.

The target of the data set is T1, rapidly activating component of the delayed rectifier current (IKr) (Canis lupus familiaris, UniProt Q9TSZ3).
T1 construct: Myocytes were isolated by enzymatic dissociation from a wedge-shaped section of the left ventricular free wall; endogenous in cells; host or cells: isolated canine left ventricular myocytes (epicardial and midmyocardial)
T1 sequence (Q9TSZ3 1-1158): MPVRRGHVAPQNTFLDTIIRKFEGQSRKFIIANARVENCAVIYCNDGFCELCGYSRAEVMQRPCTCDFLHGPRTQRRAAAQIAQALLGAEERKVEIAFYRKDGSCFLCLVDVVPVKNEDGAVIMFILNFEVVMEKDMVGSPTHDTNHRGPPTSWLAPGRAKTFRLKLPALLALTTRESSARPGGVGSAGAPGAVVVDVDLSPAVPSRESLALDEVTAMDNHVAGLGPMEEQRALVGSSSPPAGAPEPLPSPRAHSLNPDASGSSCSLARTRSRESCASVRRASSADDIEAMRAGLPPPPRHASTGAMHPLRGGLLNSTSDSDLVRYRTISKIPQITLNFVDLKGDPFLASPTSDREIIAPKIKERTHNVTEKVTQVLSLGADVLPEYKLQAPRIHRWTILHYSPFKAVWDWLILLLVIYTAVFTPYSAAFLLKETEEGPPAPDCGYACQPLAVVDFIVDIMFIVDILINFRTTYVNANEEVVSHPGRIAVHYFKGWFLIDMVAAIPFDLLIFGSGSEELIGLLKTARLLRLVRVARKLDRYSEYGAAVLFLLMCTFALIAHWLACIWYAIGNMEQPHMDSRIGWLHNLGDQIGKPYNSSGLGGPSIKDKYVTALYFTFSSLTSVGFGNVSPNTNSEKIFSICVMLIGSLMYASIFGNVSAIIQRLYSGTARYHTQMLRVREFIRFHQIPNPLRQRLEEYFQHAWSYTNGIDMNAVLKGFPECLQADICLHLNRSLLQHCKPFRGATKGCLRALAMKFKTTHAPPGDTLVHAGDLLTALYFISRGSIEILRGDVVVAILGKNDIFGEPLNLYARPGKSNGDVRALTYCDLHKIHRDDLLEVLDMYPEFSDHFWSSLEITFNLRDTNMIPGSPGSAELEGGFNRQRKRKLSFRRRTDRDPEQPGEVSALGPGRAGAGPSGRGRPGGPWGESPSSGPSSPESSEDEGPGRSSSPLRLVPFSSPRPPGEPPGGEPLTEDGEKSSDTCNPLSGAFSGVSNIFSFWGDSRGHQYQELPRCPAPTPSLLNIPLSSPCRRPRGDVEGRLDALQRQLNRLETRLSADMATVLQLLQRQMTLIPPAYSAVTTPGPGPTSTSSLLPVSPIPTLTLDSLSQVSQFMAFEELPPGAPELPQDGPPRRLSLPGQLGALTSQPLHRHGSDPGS
Put plainly: Whole cell voltage clamp of IKr tail current in isolated canine left ventricular myocytes. In kind it is cell-based. The protocol: Myocytes were isolated by enzymatic dissociation from a wedge-shaped section of the left ventricular free wall supplied by the left circumflex coronary artery. Cells from the epicardial and midmyocardial regions of the left ventricle were used in this study.
Inward rectifier potassium current (IK), slow delayed rectifier potassium current (IKs), and rapid delayed rectifier potassium current (IKr) were recorded at 37° C. using conventional whole cell voltage clamp configuration.
IK1 was measured using an external solution containing 3 μM ouabain and 5 μM nifedipine to block the sodium-potassium pump and L-type calcium current (ICa,L), respectively. […] 5 μM nifedipine was present in the external solution when IKr was being recorded.
Isolated myocytes were placed in a temperature controlled 0.5 ml chamber (Medical Systems, Greenvale, N.Y.) on the stage of an inverted microscope and superfused at a rate of 2 ml/min. […]
IKr was measured as the time-dependent tail current elicited at a potential of −40 mV following a short 250 ms depolarizing pulse to 30 mV. Data are presented as mean ±S.E.M. IK1 was recorded during 900 msec voltage steps applied from a holding potential of −40 mV to test potentials ranging from −100 mV to 0 mV, and was characterized as the 5 msec average of the steady state current at the end of the test pulse.

Turning to `COc1ccccc1OCC(O)CN1CCN(CC(=O)Nc2c(C)cccc2C)CC1` (racemic) [ranolazine, N-(2,6-dimethylphenyl)-4-[2-hydroxy-3-(2-methoxyphenoxy)propyl]-1-piperazineacetamide], the “Block of IKr” value (ranolazine 50 μM) is “almost completely blocked”. For the same molecule, the IC50 (tail current at −40 mV after 250 msec pulse to 30 mV, read-out: IC50 for inhibition of IKr tail current) stood at 11.5 µM.
